The values below are quoted from earlier work in patent US7666887B2, “Stable, neutral pH, VOC-free biocidal compositions of 1,2-benzisothiazolin-3-one” (ISP Investments, Inc., priority 2004, dated 2010).

For data set [1] the following is noted: in some individuals.

As to `O=c1[nH]sc2ccccc12` [BIT, 1,2-benzisothiazolin-3-one], the aqueous solubility entry is “low”. Moreover, in data set [1], the sensitization result is “can cause sensitization”.
